From EP2608671B1, “COMPOUNDS FOR TREATMENT OF CANCER” (Gtx, Inc., priority 2010, dated 2012) come the findings set out here.

The test system of one series is B16-F1. The experiment in a line: SRB cell growth inhibition (cytotoxicity) assay. It is filed as cell-based, mouse. From the text:
(§1) The only compounds which belong to the invention are the ones falling under the scope of formula (XI).

Series [1] deals with prostate cancer cell lines (LNCaP, DU 145, PC-3, PPC-1). The series can be described thus: SRB cytotoxicity, prostate cancer cell panel (text summaries). It is filed as cell-based. Conditions: Homo sapiens; summary over LNCaP, PC-3, DU-145, PPC-1; read-out: IC50 against prostate cancer cells.
Excerpt: as §1

Another series concerns A375. The series can be described thus: SRB cell growth inhibition (cytotoxicity) assay. It counts as cell-based, human.
The test system of the next series is DU 145. The series can be described thus: cells. To be noted: Homo sapiens.
The test system of series [2] is PPC-1. The experiment in a line: cells. To be noted: Homo sapiens.
Another series concerns PC-3. The series can be described thus: cells.
Excerpt: as §1
Cells were stained with SRB solution.
Cells. […] Cells between the third and fifth passages were used for experiments.
Cell growth inhibition studies. […] Cells were stained with sulphorhodamine B (SRB) solution.

Series [3] concerns melanoma cell lines (A375, WM-164, B16-F1) and prostate cancer cell lines (LNCaP, DU 145, PC-3, PPC-1). The experiment in a line: SRB cytotoxicity, melanoma and prostate cell panel (averages). It is filed as cell-based. To be noted: for antiproliferative activity: summary of Table 3.
Excerpt: as §1

A further series relates to LNCaP. The series can be described thus: cells. To be noted: Homo sapiens.
For series [4] the following is noted: rat; for CL (mL/min/kg), systemic clearance / Vss (L/kg), volume of distribution: IV, […] (1h, 2r), 5 mg/kg (5Ha, 5Hc); for F (%), percent oral bioavailability: Table 4, 10 mg/kg.
For a further series, the system named is NCI/ADR-RES. The series can be described thus: SRB growth inhibition, P-gp over-expressing MDR line. It counts as cell-based, human. To be noted: for IC50: Homo sapiens, NCI/ADR-RES, P-gp over-expressed MDR cell line, Table 5A, read-out: IC50 (nM), NCI/ADR-RES; for Resistance factor: NCI/ADR-RES vs OVCAR-8, 5760 min.
The test system of a further series is OVCAR-8. The series can be described thus: SRB growth inhibition, MDR model parent line. It counts as cell-based, human. To be noted: Homo sapiens, OVCAR-8; Table 5A; read-out: IC50 (nM), OVCAR-8.
For the next series, the system named is WM-164. The series can be described thus: SRB cell growth inhibition (cytotoxicity) assay. It counts as cell-based, human.
The test system of series [5] is PPC-1.
The mark [6] stands for this setting: Mus musculus, B16-F1; read-out: IC50 ± SEM (nM), B16-F1.
[7] abbreviates: Homo sapiens, A-375, 96 h; read-out: IC50 ± SEM (nM), A375.
The mark [8] stands for this setting: DU-145, 96 h, read-out: IC50 ± SEM (nM), DU 145.
Setting [9] is: PPC-1, 96 h, read-out: IC50 ± SEM (nM), PPC-1.
[10] abbreviates: Homo sapiens, PC-3, 96 h, read-out: IC50 ± SEM (nM), PC-3.
Setting [11] is: 96 h, read-out: IC50 ± SEM (nM), LNCaP.
[12] abbreviates: Mus musculus; B16-F1 melanoma cells, 48 h, SRB; read-out: IC50 ± SEM (nM) B16-F1.
Setting [13] is: Homo sapiens, A-375; A375 melanoma cells, 48 h, SRB; read-out: IC50 ± SEM (nM) A375.
Where [14] appears, read: DU-145, 96 h, read-out: IC50 ± SEM (nM) Du 145.
Setting [15] is: Homo sapiens, WM164 melanoma cells, 48 h, SRB, read-out: IC50 ± SEM (nM) WM164.
[16] abbreviates: ABI compounds, Tables 11-13, read-out: IC50 (average over cell lines).

Read-outs that look alike come from different tables or passages of the source.

For the compound `COc1cc(C(=O)c2csc(-c3ccccc3)c2)cc(OC)c1OC` [1f, (5-Phenylthiophen-3-yl)(3,4,5-trimethoxyphenyl)methanone], the IC50 in the series with B16-F1 (setting [6]) is 72 ± 15 nM; in series [1] it was 12 to 35 nM; in the series with A375 (setting [7]), 15 ± 6 nM; in the series on DU 145 (setting [8]), 26 nM; with PPC-1 [2] (setting [9]) it was 15 nM; in the series with PC-3 (setting [10]) it was 12 nM.
`CNCc1ccc(-c2nc(C(=O)c3cc(OC)c(OC)c(OC)c3)cs2)cc1.Cl` [2s, (2-(4-((Methylamino)methyl)phenyl)thiazol-4-yl)(3,4,5-trimethoxyphenyl)methanone hydrochloride]: the IC50 with B16-F1 (Mus musculus, B16-F1, read-out: IC50 ± SEM (nM), B16-F1) was > 10000 nM; in the series with A375 (Homo sapiens, A-375, 96 h, read-out: IC50 ± SEM (nM), A375), > 10000 nM; in the series on DU 145 (setting [8]) it was ~10000 nM; in the series with PPC-1 [2] (setting [9]), ~1000 nM; with LNCaP (setting [11]), 114 ± 80 nM; with PC-3 (setting [10]), > 10000 nM. In series [3], the “antiproliferative activity” value is reported as “abrogated activity”.
Turning to `COc1cc(C(=O)c2csc(-c3ccc(CN(C)C)cc3)n2)cc(OC)c1OC.Cl` [2u, (2-(4-((Dimethylamino)methyl)phenyl)thiazol-4-yl)(3,4,5-trimethoxyphenyl)methanone hydrochloride], the IC50 was > 10000 nM with B16-F1 (setting [6]); > 10000 nM in the series with A375 (setting [7]); > 10000 nM in the series with DU 145 (setting [8]); > 10000 nM in the series with PPC-1 [2] (setting [9]); 1020 ± 200 nM in the series on LNCaP (setting [11]); > 10000 nM with PC-3 (setting [10]). Moreover, the “antiproliferative activity” value in series [3] is “abrogated activity”.
`COc1cc(C(=O)c2csc(Nc3ccccc3)n2)cc(OC)c1OC.Cl` [5Ha, (2-(Phenylamino)thiazol-4-yl)(3,4,5-trimethoxyphenyl)methanone hydrochloride salt]: in series [4], the “CL (mL/min/kg), systemic clearance” value is 17 ± 3 mL/min/kg; the “Vss (L/kg), volume of distribution” value amounted to 1.4 ± 0.2 L/kg; the “F (%), percent oral bioavailability” value is reported as 11%.
Consider `COc1cc(C(=O)c2csc(Nc3ccc(F)cc3)n2)cc(OC)c1OC.Cl` [5Hc, (2-(p-Fluorophenylamino)thiazol-4-yl)(3,4,5-trimethoxyphenyl)methanone hydrochloride salt], for which, in series [4], the “CL (mL/min/kg), systemic clearance” value stood at 13 ± 2 mL/min/kg; the “Vss (L/kg), volume of distribution” value is 1.4 ± 0.2 L/kg; the “F (%), percent oral bioavailability” value turned out to be 21%. In addition, in series [4] (in vivo, po), the “increased exposure (AUC) by the oral route as compared to 1h” value is listed as “more than 4.3 fold”.
Turning to `COc1cc(C(=O)c2csc(Nc3ccc(C)cc3)n2)cc(OC)c1OC` [5b, (2-(p-Tolylamino)thiazol-4-yl)(3,4,5-trimethoxyphenyl)methanone], in the series on NCI/ADR-RES, the IC50 stood at 21 nM and the Resistance factor worked out at 0.8. Moreover, the IC50 with OVCAR-8 came out at 28 nM.
In the case of `COc1cc(C(=O)c2csc(Nc3ccc(F)cc3)n2)cc(OC)c1OC` [5c, (2-(p-Fluorophenylamino)thiazol-4-yl)(3,4,5-trimethoxyphenyl)methanone], the IC50 was determined as 25 ± 6 nM in the series with NCI/ADR-RES; 63 ± 1 nM with DU 145 (setting [8]); 44 ± 3 nM with OVCAR-8; 41 ± 1 nM with LNCaP (setting [11]); 43 ± 1 nM in the series with PC-3 (setting [10]). Also, in the series on NCI/ADR-RES, the Resistance factor is 0.6.
On to `COc1cc(C(=O)c2c[nH]c(Nc3ccccc3)n2)cc(OC)c1OC` [5e, (2-(Phenylamino)-1H-imidazol-4-yl)(3,4,5-trimethoxyphenyl)methanone], for which the IC50 (in [1]; in the series on DU 145 (setting [8]); with PPC-1 [2] (setting [9]); with LNCaP (setting [11]); in the series with PC-3 (setting [10])) was > 1000 nM each time.
`O=C(c1ccc(F)cc1)c1cn(S(=O)(=O)c2ccccc2)c(-c2ccc(OCc3ccccc3)cc2)n1` [11jb, (2-(4-(benzyloxy)phenyl)-1-(phenylsulfonyl)-1H-imidazol-4-yl)(4-fluorophenyl)methanone]: the IC50 was found to be 110 ± 15 nM in the series with B16-F1 (setting [12]); 61 nM in [3] (Prostate cell, ABI compounds, Tables 11-13, read-out: IC50 (average over cell lines)); 64 ± 7 nM in the series with A375 (setting [13]); 58 ± 1 nM with DU 145 (setting [14]); 38 ± 0.2 nM in the series with PPC-1 [2] (setting [9]); 35 ± 1 nM in the series on LNCaP (setting [11]). Also, the IC50 was determined as 48 ± 5 nM in the series on WM-164 (setting [15]) and 75 ± 0.5 nM in the series on PC-3 (setting [10]).
`COc1cc(C(=O)c2c[nH]c(-c3ccccc3)n2)cc(OC)c1OC` [12aa, (2-phenyl-1H-imidazol-4-yl)(3,4,5-trimethoxyphenyl)methanone]: the IC50 is 120 nM in the series on B16-F1 (Mus musculus, B16-F1, 48 h, read-out: IC50 (nM), B16-F1); 160 nM in series [3] (setting [16]); 160 nM in the series on A375 (Homo sapiens, A-375, 48 h, read-out: IC50 (nM), A375); 196 nM in the series on DU 145 (DU-145, 96 h, read-out: IC50 (nM), Du 145); 133 nM with PPC-1 [2] (PPC-1, 96 h, read-out: IC50 (nM), PPC-1); 152 nM in the series on LNCaP (96 h, read-out: IC50 (nM), LNCaP). The IC50 was determined as 10 nM in the series on WM-164 (Homo sapiens, WM164, 48 h, read-out: IC50 (nM), WM164) and 288 nM with PC-3 (Homo sapiens, PC-3, 96 h, read-out: IC50 (nM), PC-3).
For `COc1ccc(-c2nc(C(=O)c3cc(OC)c(OC)c(OC)c3)c[nH]2)cc1OC` [12ha, (2-(3,4-dimethoxyphenyl)-1H-imidazol-4-yl)(3,4,5-trimethoxyphenyl)methanone], the IC50 in the series with B16-F1 (Mus musculus, B16-F1, 48 h, read-out: IC50 ± SEM (nM) B16-F1) is 1400 ± 200 nM; in [3] (setting [16]), 330 nM; in the series with WM-164 (Homo sapiens, WM164, 48 h, read-out: IC50 ± SEM (nM) WM164), 191 ± 18 nM.
As for `O=C(c1ccc(F)cc1)c1c[nH]c(-c2ccccc2C(F)(F)F)n1` [12ib, (4-fluorophenyl)(2-(2-(trifluoromethyl)phenyl)-1 H-imidazol-4-yl)methanone], the IC50 in the series on B16-F1 (setting [12]) is > 10000 nM; in [3] (Prostate cell, read-out: IC50 (average over cell lines)), > 10000 nM; in the series on A375 (setting [13]) it was > 10000 nM; with DU 145 (setting [14]), > 10000 nM; in the series on PPC-1 [2] (setting [9]), > 10000 nM; in the series with LNCaP (setting [11]), > 10000 nM. The IC50 in the series with WM-164 (setting [15]) and in the series on PC-3 (setting [10]) was > 10000 nM throughout.
With `COc1cc(C(=O)[C@H]2COC(c3ccccc3)=N2)cc(OC)c1OC` [35a, (2R)-(2-Phenyl-4,5-dihydro-oxazol-4-yl)-(3,4,5-trimethoxy-phenyl)-methanone], the IC50 in the series with B16-F1 (SRB assay; Tables 1, 2, 3, 5B, 5C; read-out: IC50 ± SEM (nM), B16-F1) was found to be 6500 ± 800 nM; with A375 (SRB assay, 96 h; Tables 1, 2, 3, 5B, 5C; read-out: IC50 ± SEM (nM), A375) it was 500 ± 100 nM; with PPC-1 [5] (read-out: IC50 ± SEM (nM), PPC-1, SRB assay, 96 h, Tables 1, 2, 3, 5B, 5C), 1100 ± 100 nM.
For the compound `O=C(c1ccc2[nH]ccc2c1)c1csc(-c2cc3ccccc3[nH]2)n1` [compound 21, (2-(1H-indol-2-yl)thiazol-4-yl)(1H-indol-5-yl)methanone], the IC50 was 924 nM in the series with B16-F1 (Mus musculus, B16-F1; Table 6A; read-out: IC50 (nM), B16-F1); 76 to 116 nM in [3] (Prostate cell, summary of Tables 2, 3, 21, read-out: IC50 range over tested melanoma and prostate cell lines); 383 nM with A375 (Homo sapiens, A-375; Table 6A; read-out: IC50 (nM), A375); 435 nM in the series on DU 145 (DU-145, read-out: IC50 (nM), DU 145); 216 nM in the series on PPC-1 [2] (PPC-1, read-out: IC50 (nM), PPC-1); 314 nM in the series on LNCaP (read-out: IC50 (nM), LNCaP). The IC50 came out at 408 nM in the series on WM-164 (Homo sapiens, WM164, Table 6A, read-out: IC50 (nM), WM164) and 403 nM with PC-3 (Homo sapiens, PC-3, read-out: IC50 (nM), PC-3).
For the compound “(1-(phenylsulfonyl)-2-(1-(phenylsulfonyl)-1H-indol-3-yl)-1H-imidazol-4-yl)(3,4,5-trimethoxyphenyl)methanone [17yaa]”, the IC50 in the series on B16-F1 (Table 6A; read-out: IC50 (nM), B16-F1) stood at 539 nM; in the series on A375 (Table 6A; read-out: IC50 (nM), A375) it was 481 nM; in the series with PPC-1 [5] (read-out: IC50 (nM), PPC-1, Table 6A), 209 nM; in the series on WM-164 (Table 6A, read-out: IC50 (nM), WM164), 468 nM; in the series on PC-3 (read-out: IC50 (nM), PC-3, Table 6A) it was 148 nM.
